From patent US8759522B2, “Inhibitors of protein tyrosine kinase activity” (Methylgene Inc., priority 2008, dated 2014) come the findings set out here.

One experiment concerns CNV progression. Kind of experiment: In vivo choroidal neovascularization (CNV) model. The following applies: rat laser-induced CNV, 30 nmol/eye injection on Day 3, CNV area on Day 10 vs vehicle-treated group; for inhibition in vivo at 30 nmol/eye: 240 h. Also on record: species or system Brown-Norway rats. From the text: In vivo Choroidal Neovascularization (CNV) Model
This test measures the capacity of compounds to inhibit CNV progression. CNV is the main cause of severe vision loss in patients suffering from age-related macular degeneration (AMD).
Male Brown-Norway rats (Japan Clea Co., Ltd.) were used in these studies.
Rats were anesthetized by intraperitoneal injection of pentobarbital, and the right pupil was dilated with 0.5% tropicamide and 0.5% phenylephrine hydrochloride. The right eye received 6 laser burns between retinal vessels using a slit lamp delivery system of Green laser Photocoagulator (Nidex Inc., Japan), and microscope slide glass with Healon™ (AMO Inc) used as a contact lens. The laser power was 100 or 200 mW for 0.1 second and spot diameter was 100 μm. At the time of laser burn, bubble production was observed, which is an indication of rupture of Bruch's membrane which is important for CNV generation.
Rats were divided into the groups based on their body weight using SAS software (SAS institute Japan, R8.1) after laser irradiation (Day 0). After animals were anesthetized, and the right pupil dilated (as above mentioned), the right eye of the animal received the compound or vehicle by an injection (10 μL/eye) at doses of 30 nmol/eye on Day 3. The compounds were dissolved or suspended in CBS, PBS, or other adequate vehicles before injection.
On Day 10, the animals were anesthetized with ether, and high molecular weight fluorescein isothiocyanate (FITC)-dextran (SIGMA, 2×10^6 MW) was injected via a tail vein (20 mg/rat). About 30 min after FITC-dextran injection, animals were euthanized by ether or carbon dioxide, and the eyes were removed and fixed with 10% formaline neutral buffer solution. After over 1 hour of fixation, RPE-choroid-sclera flat mounts were obtained by removing cornea, lens and retina from the eyeballs. The flat mounts were mounted in 50% glycerol on a microscope slide, and the portion burned by laser was photographed using a fluorescence microscope (Nikon Corporation, excitation filter: 465-495 nm, absorption filter: 515-555 nm). The CNV area was obtained by measurement of hyper-fluorescence area observed on the photograph using Scion image.
The average CNV area of 6 burns was used as an individual value of CNV area, and the average CNV area of compound treated group was compared with that of the vehicle-treated group.

Experiment [1] has as its system VEGF-dependent Erk phosphorylation in HUVEC cells. Kind of experiment: VEGF-dependent Erk phosphorylation. Conditions: Homo sapiens, 1.5 h compound, VEGF165 150 ng/ml, phospho ERK1/2 Western blot. The class given is cell-based. The text has this: VEGF-Dependent Erk Phosphorylation
HUVEC cells were purchased from Cambrex Bio Science Walkersville, Inc and cultured according to the vendor's instructions. The full-length coding sequence of VEGF165 was cloned using the Gateway Cloning Technology (Invitrogen) for baculovirus expression Sf9 cells. VEGF165 was purified from conditioned media using a NaCl gradient elution from a HiTrap heparin column (GE Healthcare Life Sciences) followed by an imidazole gradient elution from a HiTrap chelating column (GE Healthcare Life Sciences), then buffer stored in PBS supplemented with 0.1% BSA and filter sterilized
Cells were seeded at 8000 cells/well of a 96 wells plate and grown for 48 hours. Cells were then grown overnight in serum and growth factor-free medium and exposed for 1.5 h to compounds dilutions. Following a 15 min incubation in medium, VEGF165 (150 ng/ml) cells were lysed in ice-cold lysis buffer (50 mM HEPES, pH 7.4, 150 mM NaCl, 1.5 mM MgCl2, 1% Triton X-100, 10% glycerol) containing 1 mM 4-(2 aminoethyl)benzenesulfonyl fluoride hydrochloride, 200 μM sodium orthovanadate, 1 mM sodium fluoride, 10 μg/mL leupeptin, 10 μg/mL aprotinin, 1 μg/mL pepstatin and 50 μg/mL Na-p-tosyl-L-lysine chloromethyl ketone hydrochloride and processed as Western blots to detect anti-phospho ERK1/2 (T202/Y204) (Cell Signaling Technologies).
lysates samples from single treatment wells were separated on 5-20% SDS-PAGE gels and immunobloting was performed using Immobilon polyvinylidene difluoride membranes (Amersham) according to the manufacturer's instructions.

A further experiment deals with T1, VEGFR2 (KDR) (Homo sapiens, UniProt P35968).
T1 construct: made in house; host or cells: Sf9 cells (Spodoptera frugiperda), baculovirus (Bac-to-Bac)
Kind of experiment: In vitro receptor tyrosine kinase assay (VEGF receptor KDR), DELFIA. In kind it is biochemical. The following applies: recombinant GST-VEGFR2 catalytic domain, ATP 0.6 uM, enzyme 5 nM. The text has this:
In Vitro Receptor Tyrosine Kinase Assay (VEGF Receptor KDR)
This test measures the ability of compounds to inhibit the enzymatic activity of recombinant human VEGF receptor enzymatic activity.
A 1.6-kb cDNA corresponding to the catalytic domain of VEGFR2 (KDR) (Genbank accession number AF035121 amino acid 806 to 1356) is cloned into the Pst I site of the pDEST20 Gateway vector (Invitrogen) for the production of a GST-tagged version of that enzyme. This constuct is used to generate recombinant baculovirus using the Bac-to-Bac™ system according to the manucfacturer's instructions (Invitrogen).
The GST-VEGFR2806-1356 protein is expressed in Sf9 cells (Spodoptera frugiperda) upon infection with recombinant baculovirus construct. Briefly, Sf9 cells grown in suspension and maintained in serum-free medium (Sf900 II supplemented with gentamycin) at a cell density of about 2×10^6 cells/ml are infected with the above-mentioned viruses at a multiplicity of infection (MOI) of 0.1 during 72 hours at 27° C. with agitation at 120 rpm on a rotary shaker. Infected cells are harvested by centrifugation at 398 g for 15 min. Cell pellets are frozen at −80° C. until purification is performed.
All steps described in cell extraction and purification are performed at 4° C. Frozen Sf9 cell pellets infected with the GST-VEGFR2806-1356 recombinant baculovirus are thawed and gently resuspended in Buffer A (PBS pH 7.3 supplemented with 1 μg/ml pepstatin, 2 μg/ml Aprotinin and leupeptin, 50 μg/ml PMSF, 50 μg/ml TLCK and 10 μM E64 and 0.5 mM DTT) using 3 ml of buffer per gram of cells. Suspension is Dounce homogenized and 1% Triton X-100 is added to the homogenate after which it is centrifuged at 22500 g, 30 min., 4° C. The supernatant (cell extract) is used as starting material for purification of GST-VEGFR2806-1356.
The supernatant is loaded onto a GST-agarose column (Sigma) equilibrated with PBS pH 7.3. Following a four column volume (CV) wash with PBS pH 7.3+1% Triton X-100 and 4 CV wash with buffer B (50 mM Tris pH 8.0, 20% glycerol and 100mM NaCl), bound proteins are step eluted with 5 CV of buffer B supplemented with 5 mM DTT and 15 mM glutathion. GST-VEGFR2806-1356 enriched fractions from this chromatography step are pooled based on U.V. trace i.e. fractions with high O.D.280. Final GST-VEGFR2806-1356 protein preparations concentrations are about 0.7 mg/ml with purity approximating 70%. Purified GST-VEGFR2806-1356 protein stocks are aliquoted and frozen at −80° C. prior to use in enzymatic assay.
Inhibition of VEGFR/KDR is measured in a DELFIA™ assay (Perkin Elmer). The substrate poly(Glu4, Tyr) is immobilized onto black high-binding polystyrene 96-well plates. The coated plates are washed and stored at 4° C. During the assay, the enzyme is pre-incubated with inhibitor and Mg-ATP on ice in polypropylene 96-well plates for 4 minutes, and then transferred to the coated plates. The subsequent kinase reaction takes place at 30° C. for 10-30 minutes. ATP concentrations in the assay are 0.6 uM for VEGFR/KDR (2× the Km). Enzyme concentration is 5 nM. After incubation, the kinase reactions are quenched with EDTA and the plates are washed. Phosphorylated product is detected by incubation with Europium-labeled anti-phosphotyrosine MoAb. After washing the plates, bound MoAb is detected by time-resolved fluorescence in a Gemini SpectraMax reader (Molecular Devices). Compounds are evaluated over a range of concentrations and IC50's (concentration of compounds giving 50% inhibition of enzymatic activity) are determined. In the table, “a” indicates inhibitory activity at a concentration of less than 250 nanomolar; “b” indicates inhibitory activity at a concentration ≧250 but <500 nanomolar, “c” indicates inhibitory activity at ≧500 but <1000 nanomolar; and “d” indicates inhibitory activity ≧1000 nanomolar.

The structures appear in SMILES notation.

T1 sequence (P35968 806-1356): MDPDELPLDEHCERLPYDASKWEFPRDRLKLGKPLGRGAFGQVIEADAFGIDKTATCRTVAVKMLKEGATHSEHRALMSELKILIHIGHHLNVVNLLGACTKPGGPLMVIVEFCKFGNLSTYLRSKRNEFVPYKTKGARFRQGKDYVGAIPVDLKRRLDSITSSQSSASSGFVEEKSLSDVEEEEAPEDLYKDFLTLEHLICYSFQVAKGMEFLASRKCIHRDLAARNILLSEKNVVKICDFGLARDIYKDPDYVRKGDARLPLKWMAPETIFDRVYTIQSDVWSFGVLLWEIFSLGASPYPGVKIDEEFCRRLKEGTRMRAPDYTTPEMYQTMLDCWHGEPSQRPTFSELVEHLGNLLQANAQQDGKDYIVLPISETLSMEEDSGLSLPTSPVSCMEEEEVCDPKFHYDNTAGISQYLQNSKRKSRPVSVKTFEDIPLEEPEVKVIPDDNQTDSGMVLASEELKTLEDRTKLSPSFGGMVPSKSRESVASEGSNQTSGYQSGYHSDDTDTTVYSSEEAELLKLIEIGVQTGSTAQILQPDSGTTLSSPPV

As a reminder, the inhibition in vivo is the share of the control response that was lost under treatment. Compound `COCCNCc1cnc(-c2cc3nccc(Oc4ccc(NC(=O)NC(C)C)cc4F)c3s2)n1C` [Compound 315, 1-(3-Fluoro-4-(2-(5-((2-methoxyethylamino)methyl)-1-methyl-1H-imidazol-2-yl)thieno[3,2-b]pyridin-7-yloxy)phenyl)-3-isopropylurea] yielded an inhibition in vivo at 30 nmol/eye in the experiment on CNV progression of no less than 60%.

In the experiment on CNV progression, `COCCOCCOCCOCCNCc1ccc(-c2cc3nccc(Oc4ccc(NC(=O)NC5CC5)cc4F)c3s2)nc1` [Compound 323, 1-(4-(2-(5-5,8,11,14-Tetraoxa-2-azapentadecylpyridin-2-yl)thieno[3,2-b]pyridin-7-yloxy)-3-fluorophenyl)-3-cyclopropylurea] displayed an inhibition in vivo at 30 nmol/eye of no less than 60%.

The compound `N[C@@H](CCCCNCc1ccc(-c2cc3nccc(Oc4ccc(NC(=O)NC5CC5)cc4F)c3s2)nc1)C(=O)O` [Compound 324, (S)-2-amino-6-((6-(7-(4-(3-cyclopropylureido)-2-fluorophenoxy)thieno[3,2-b]pyridin-2-yl)pyridin-3-yl)methylamino)hexanoic acid] returned an inhibition in vivo at 30 nmol/eye in the experiment with CNV progression of 40 to 60%.

In the experiment with CNV progression, `COCCOCCNCc1ccc(-c2cc3nccc(Oc4ccc(NC(=O)NC5CC5)cc4F)c3s2)nc1` [Compound 331, 1-Cyclopropyl-3-(3-fluoro-4-(2-(5-((2-(2-methoxyethoxy)ethylamino)methyl)pyridin-2-yl)thieno[3,2-b]pyridin-7-yloxy)phenyl)urea] showed an inhibition in vivo at 30 nmol/eye of 40 to 60%.

On to `O=C(Nc1ccc(Oc2ccnc3cc(-c4ccc(CN5CCCC5=O)cn4)sc23)c(F)c1)NC1CC1` [Compound 333, 1-cyclopropyl-3-(3-fluoro-4-(2-(5-((2-oxopyrrolidin-1-yl)methyl)pyridin-2-yl)thieno[3,2-b]pyridin-7-yloxy)phenyl)urea], for which the inhibition in vivo at 30 nmol/eye in the experiment on CNV progression is no less than 60%.

The compound `COC[C@H](C)N(Cc1ccc(-c2cc3nccc(Oc4ccc(NC(=O)NC5CC5)cc4F)c3s2)nc1)C(C)=O` [Compound 335, (S)—N-((6-(7-(4-(3-cyclopropylureido)-2-fluorophenoxy)thieno[3,2-b]pyridin-2-yl)pyridin-3-yl)methyl)-N-(1-methoxypropan-2-yl)acetamide] returned an inhibition in vivo at 30 nmol/eye with CNV progression of 40 to 60%.

Take `COCCN(Cc1ccc(-c2cc3nccc(Oc4ccc(NC(=O)NC5CC5)cc4F)c3s2)nc1)C(=O)[C@H](N)C(C)C` [Compound 341, (R)-2-amino-N-((6-(7-(4-(3-cyclopropylureido)-2-fluorophenoxy)thieno[3,2-b]pyridin-2-yl)pyridin-3-yl)methyl)-N-(2-methoxyethyl)-3-methylbutanamide]: the inhibition in vivo at 30 nmol/eye in the experiment on CNV progression was no less than 60%.

Regarding `COCCNCc1cnc(-c2cc3nccc(Oc4ccc(NC(=O)NC5CC5)cc4F)c3s2)n1C` [Compound 348], in the experiment with CNV progression, the “Inhibition of CNV progression” value is “B (≧40% to <60% inhibition)”.

Consider `COCCN(Cc1cnc(-c2cc3nccc(Oc4ccc(NC(=O)NC5CC5)cc4F)c3s2)n1C)S(C)(=O)=O` [Compound 349, N-((2-(7-(4-(3-Cyclopropylureido)-2-fluorophenoxy)thieno[3,2-b]pyridin-2-yl)-1-methyl-1H-imidazol-5-yl)methyl)-N-(2-methoxyethyl)methanesulfonamide], for which the inhibition in vivo at 30 nmol/eye in the experiment with CNV progression was no less than 60%.

In turn, `COCCNCc1cnc(-c2cc3nccc(Oc4ccc(NC(=O)Nc5ccc(F)cc5F)cc4F)c3s2)n1C` [Compound 351, 1-(2,4-difluorophenyl)-3-(3-fluoro-4-(2-(5-((2-methoxyethylamino)methyl)-1-methyl-1H-imidazol-2-yl)thieno[3,2-b]pyridin-7-yloxy)phenyl)urea] had an inhibition in vivo at 30 nmol/eye with CNV progression of 40 to 60%.

Take `COCCNCc1cccc(-c2cc3nccc(Oc4ccc(NC(=O)Nc5cccc(P(C)(C)=O)c5)cc4F)c3s2)n1` [Compound 387, 1-(3-(dimethylphosphoryl)phenyl)-3-(3-fluoro-4-(2-(6-((2-methoxyethylamino)methyl)pyridin-2-yl)thieno[3,2-b]pyridin-7-yloxy)phenyl)urea]: the inhibition in vivo at 30 nmol/eye with CNV progression lay in the range of 40 to 60%.

In the case of `COCCOCCOCCNCc1ccc(-c2cc3nccc(Oc4ccc(NC(=O)Nc5cccc(P(C)(C)=O)c5)cc4F)c3s2)nc1` [Compound 390, 1-(4-(2-(5-5,8,11-trioxa-2-azadodecylpyridin-2-yl)thieno[3,2-b]pyridin-7-yloxy)-3-fluorophenyl)-3-(3-(dimethylphosphoryl)phenyl)urea], the inhibition in vivo at 30 nmol/eye in the experiment with CNV progression lay in the range of 40 to 60%.

A word on the IC50: it is the concentration needed to halve the response being measured. `COCCN(Cc1ccc(-c2cc3nccc(Oc4ccc(NC(=O)Nc5cccc(C(N)=O)c5)cc4F)c3s2)nc1)C(=O)OC` [drawing 160]: the IC50 (in experiment [1]; at VEGFR2 (KDR)) was less than 250 nM in each case.
